Results as given in patent publication US9133207B2, “Tetrandrine derivatives with substituted 5-carbon, preparation method and use thereof” (Hangzhou Bensheng Pharmaceutical Co., Ltd., priority 2011, dated 2015).
Converted amounts (≈) assume the structure as drawn.

Tests used:
[1] = test system: Becap37 (human breast cancer cell); assay: Solid tumor cell growth inhibition, MTT, 72 h (Example 7); format: cell-based; settings: Homo sapiens; 72 h, MTT, Becap-37
How it was run: (§1)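 Viability (%) relative to compound-free controls (100%) comes from MTT measurement following 72 h drug exposure at 37 °C, 5% CO2. Seeding density: 4000 cells/well, 24 h before dosing.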

[2] = test system: RKO (human colon adenocarcinoma cell); assay: as above; format: cell-based; settings: Homo sapiens; 72 h, MTT, RKO
How it was run: as §1

[3] = test system: SK-OV-3 (ovarian cancer cell); assay: as above; format: cell-based; settings: Homo sapiens
How it was run: as §1

[4] = test system: CNE (nasopharyngeal carcinoma cell); assay: as above; format: cell-based; settings: Homo sapiens
How it was run: as §1

[5] = test system: Hela (human cervical cancer cell); assay: as above; format: cell-based; settings: Homo sapiens; 72 h, MTT, Hela
How it was run: as §1

[6] = test system: U87 MG (malignant glioma cell); assay: as above; format: cell-based; settings: Homo sapiens, U-87 MG
How it was run: as §1

[7] = test system: A549 (human lung cancer); assay: as above; format: cell-based; settings: Homo sapiens; 72 h, MTT, A549
How it was run: as §1

[8] = test system: Huh7 (human liver cancer cell); assay: as above; format: cell-based; settings: Homo sapiens; 72 h, MTT, Huh-7
How it was run: as §1

[9] = test system: MGC 803 (human gastric cancer cell); assay: as above; format: cell-based; settings: Homo sapiens
How it was run: as §1

[10] = test system: Jurkat (acute lymphoblastic leukemia, ALL); assay: Leukemia cell growth inhibition, MTT, 72 h (Example 5); format: cell-based, human; settings: Homo sapiens, Jurkat; 72 h, MTT
How it was run: (§2)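 An MTT read-out of viable cell concentration follows 72 h incubation (37° C, 5% CO2) of 6000 cells/well in 10% FBS-supplemented 1640 medium with the 5-substituted derivatives at varying concentrations.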

[11] = test system: NB4 (acute promyelocytic leukemia, AML); assay: as above; format: cell-based, human; settings: Homo sapiens; 72 h, MTT
How it was run: as §2

[12] = test system: H9 (acute lymphoblastic leukemia, ALL); assay: as above; format: cell-based, human; settings: Homo sapiens; 72 h, MTT
How it was run: as §2

[13] = test system: K562/adr (drug-resistant, chronic myeloid leukemia, CML); assay: as above; format: cell-based, human; settings: Homo sapiens, K562/Adr; 72 h, MTT
How it was run: as §2

[14] = test system: Kasumi-1 (acute myeloid leukemia M2 type, AML-M2); assay: as above; format: cell-based, human; settings: Homo sapiens, Kasumi 1
How it was run: as §2

[15] = test system: RPMI8226 (multiple myeloma); assay: Multiple myeloma cell growth inhibition, MTT, 72 h (Example 6); format: cell-based, human; settings: Homo sapiens, RPMI-8226; 72 h, MTT, RPMI8226
How it was run: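 Viability was read by MTT after 72 h of compound exposure at 37 °C, 5% CO2. Each well held 6000 RPMI8226 cells in 1640 medium containing 10% fetal bovine serum, with derivatives added at various concentrations.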

[16] = test system: MG63 (osteosarcoma); assay: Solid tumor cell growth inhibition, MTT, 72 h (Example 7); format: cell-based, human; settings: Homo sapiens; 72 h, MTT, MG-63
How it was run: as §1

[17] = test system: PANC-1 (pancreatic cancer); assay: as above; format: cell-based, human; settings: Homo sapiens; 72 h, MTT, PANC-1
How it was run: as §1

[18] = test system: PC-3 (prostate cancer); assay: as above; format: cell-based, human; settings: Homo sapiens; 72 h, MTT, PC-3
How it was run: as §1

[19] = test system: CaES-17 (esophageal cancer cell); assay: as above; format: cell-based, human; settings: Homo sapiens, CaEs17; 72 h, MTT, CAES-17
How it was run: as §1

[20] = test system: Hep-2 (laryngeal carcinoma); assay: as above; format: cell-based, human; settings: Homo sapiens; 72 h, MTT, Hep 2
How it was run: as §1

Row | IC50 [1] | IC90 [1] | IC50 [2] | IC90 [2] | IC50 [3] | IC90 [3] | IC50 [4] | IC90 [4] | IC50 [5] | IC90 [5] | IC50 [6] | IC90 [6] | IC50 [7] | IC90 [7] | IC50 [8] | IC90 [8] | IC50 [9] | IC90 [9] | IC50 [10] | IC90 [10] | Structure (SMILES) | other results
1 | 1.4 µg/mL (≈ 1.9 µM) | 4.5 µg/mL (≈ 6.11 µM) | 0.69 µg/mL (≈ 0.938 µM) | 1.71 µg/mL (≈ 2.32 µM) | 3.5 µg/mL (≈ 4.76 µM) | > 16 µg/mL | 2.8 µg/mL (≈ 3.8 µM) | 6.6 µg/mL (≈ 8.97 µM) | 1.48 µg/mL (≈ 2.01 µM) | 4.31 µg/mL (≈ 5.86 µM) | 0.57 µg/mL (≈ 0.775 µM) | 2.51 µg/mL (≈ 3.41 µM) | 4.4 µg/mL (≈ 5.98 µM) | 16 µg/mL (≈ 21.7 µM) | 0.81 µg/mL (≈ 1.1 µM) | 1.24 µg/mL (≈ 1.68 µM) | 1.78 µg/mL (≈ 2.42 µM) | 6.73 µg/mL (≈ 9.14 µM) | 0.94 µg/mL (≈ 1.28 µM) | 5.75 µg/mL (≈ 7.81 µM) | COc1ccc2cc1Oc1ccc(cc1)C[C@H]1c3cc(c(OC)cc3CCN1C)Oc1c(OC)c(OC)c(CN3CCCC(O)C3)c3c1[C@H](C2)N(C)CC3 (stereo partly drawn) [BS-TE-321] | IC50 [11]: 0.8 µg/mL (≈ 1.09 µM); IC90 [11]: 1.9 µg/mL (≈ 2.58 µM); IC50 [12]: 0.91 µg/mL (≈ 1.24 µM); IC90 [12]: 1.78 µg/mL (≈ 2.42 µM); IC50 [13]: 0.49 µg/mL (≈ 0.666 µM); IC90 [13]: 3.02 µg/mL (≈ 4.1 µM); IC50 [14]: 0.48 µg/mL (≈ 0.652 µM); IC90 [14]: 2.55 µg/mL (≈ 3.47 µM); IC50 [15]: 0.08 µg/mL (≈ 0.109 µM); IC90 [15]: 3.63 µg/mL (≈ 4.93 µM); IC50 [16]: 1.1 µg/mL (≈ 1.49 µM); IC90 [16]: 3.2 µg/mL (≈ 4.35 µM); IC50 [17]: 2.6 µg/mL (≈ 3.53 µM); IC90 [17]: 9.14 µg/mL (≈ 12.4 µM); IC50 [18]: 2.01 µg/mL (≈ 2.73 µM); IC90 [18]: 3.84 µg/mL (≈ 5.22 µM); IC50 [19]: 2.25 µg/mL (≈ 3.06 µM); IC90 [19]: 19.1 µg/mL (≈ 25.9 µM); IC50 [20]: 3.51 µg/mL (≈ 4.77 µM); IC90 [20]: 9.8 µg/mL (≈ 13.3 µM)
2 | 1.3 µg/mL (≈ 1.95 µM) | 2 µg/mL (≈ 3 µM) | 0.87 µg/mL (≈ 1.31 µM) | 2.22 µg/mL (≈ 3.33 µM) | 1.91 µg/mL (≈ 2.87 µM) | 5.21 µg/mL (≈ 7.82 µM) | 3.2 µg/mL (≈ 4.81 µM) | 4.95 µg/mL (≈ 7.43 µM) | 1.9 µg/mL (≈ 2.85 µM) | 3.01 µg/mL (≈ 4.52 µM) | 0.75 µg/mL (≈ 1.13 µM) | 2.4 µg/mL (≈ 3.6 µM) | 1.8 µg/mL (≈ 2.7 µM) | 4.9 µg/mL (≈ 7.36 µM) | 1.15 µg/mL (≈ 1.73 µM) | 1.76 µg/mL (≈ 2.64 µM) | 1.46 µg/mL (≈ 2.19 µM) | 5.38 µg/mL (≈ 8.08 µM) | 1.41 µg/mL (≈ 2.12 µM) | 3.98 µg/mL (≈ 5.98 µM) | CNCc1c2c3c(c(OC)c1OC)Oc1cc4c(cc1OC)CCN(C)[C@H]4Cc1ccc(cc1)Oc1cc(ccc1OC)C[C@@H]3N(C)CC2 [BS-TE-326] | IC50 [11]: 1.2 µg/mL (≈ 1.8 µM); IC90 [11]: 1.8 µg/mL (≈ 2.7 µM); IC50 [12]: 0.88 µg/mL (≈ 1.32 µM); IC90 [12]: 1.35 µg/mL (≈ 2.03 µM); IC50 [13]: 0.89 µg/mL (≈ 1.34 µM); IC90 [13]: 2.14 µg/mL (≈ 3.21 µM); IC50 [14]: 0.96 µg/mL (≈ 1.44 µM); IC90 [14]: 2.37 µg/mL (≈ 3.56 µM); IC50 [15]: 0.27 µg/mL (≈ 0.406 µM); IC90 [15]: 0.64 µg/mL (≈ 0.961 µM); IC50 [16]: 1.4 µg/mL (≈ 2.1 µM); IC90 [16]: 1.9 µg/mL (≈ 2.85 µM); IC50 [17]: 1.63 µg/mL (≈ 2.45 µM); IC90 [17]: 5.16 µg/mL (≈ 7.75 µM); IC50 [18]: 3.6 µg/mL (≈ 5.41 µM); IC90 [18]: 5.8 µg/mL (≈ 8.71 µM); IC50 [19]: 2.5 µg/mL (≈ 3.75 µM); IC90 [19]: 6.18 µg/mL (≈ 9.28 µM); IC50 [20]: 3.62 µg/mL (≈ 5.44 µM); IC90 [20]: 6.57 µg/mL (≈ 9.87 µM)
3 | 2 µg/mL (≈ 2.71 µM) | 4 µg/mL (≈ 5.42 µM) | 1.76 µg/mL (≈ 2.38 µM) | 3 µg/mL (≈ 4.07 µM) | 6.8 µg/mL (≈ 9.21 µM) | > 16 µg/mL | 6.02 µg/mL (≈ 8.16 µM) | > 16 µg/mL | 2.49 µg/mL (≈ 3.37 µM) | 4.91 µg/mL (≈ 6.65 µM) | 1.44 µg/mL (≈ 1.95 µM) | 5.39 µg/mL (≈ 7.3 µM) | 3.7 µg/mL (≈ 5.01 µM) | 9.9 µg/mL (≈ 13.4 µM) | 1.52 µg/mL (≈ 2.06 µM) | 3.7 µg/mL (≈ 5.01 µM) | 1.68 µg/mL (≈ 2.28 µM) | 4 µg/mL (≈ 5.42 µM) | 2.09 µg/mL (≈ 2.83 µM) | 8 µg/mL (≈ 10.8 µM) | COc1ccc2cc1Oc1ccc(cc1)C[C@H]1c3cc(c(OC)cc3CCN1C)Oc1c(OC)c(OC)c(CN3CCSCC3)c3c1[C@H](C2)N(C)CC3 [BS-TE-328] | IC50 [11]: 1.8 µg/mL (≈ 2.44 µM); IC90 [11]: 4.4 µg/mL (≈ 5.96 µM); IC50 [12]: 1.54 µg/mL (≈ 2.09 µM); IC90 [12]: 3.15 µg/mL (≈ 4.27 µM); IC50 [13]: 1.46 µg/mL (≈ 1.98 µM); IC90 [13]: 5.12 µg/mL (≈ 6.94 µM); IC50 [14]: 0.84 µg/mL (≈ 1.14 µM); IC90 [14]: 3.76 µg/mL (≈ 5.1 µM); IC50 [15]: 0.15 µg/mL (≈ 0.203 µM); IC90 [15]: 0.96 µg/mL (≈ 1.3 µM); IC50 [16]: 2.1 µg/mL (≈ 2.85 µM); IC90 [16]: 3.9 µg/mL (≈ 5.28 µM); IC50 [17]: 2.99 µg/mL (≈ 4.05 µM); IC90 [17]: 7.15 µg/mL (≈ 9.69 µM); IC50 [18]: 3.07 µg/mL (≈ 4.16 µM); IC90 [18]: 4.98 µg/mL (≈ 6.75 µM); IC50 [19]: 3.13 µg/mL (≈ 4.24 µM); IC90 [19]: 12.2 µg/mL (≈ 16.5 µM); IC50 [20]: 9.63 µg/mL (≈ 13 µM); IC90 [20]: 15.9 µg/mL (≈ 21.5 µM)
